# Measurements: ChEMBL document CHEMBL5550184, “Structure-activity relationships of middle-size cyclic peptides, KRAS inhibitors derived from an mRNA display” (Bioorg Med Chem, 2024)
# Positions of bridges follow the written chain, without caps; N, C: chain ends. Non-standard residues stand in square brackets, D forms with d. Residues, ends and D or L forms follow the SMILES beside them. *: point of attachment. hPhe(3-Cl-4-CF3) = N[C@@H](CCc1ccc(C(F)(F)F)c(Cl)c1)C(=O)O; NMeAla(cPent) = CN[C@@H](CC1CCCC1)C(=O)O; NMeAla(cPr) = CN[C@@H](CC1CC1)C(=O)O; NMeCha = CN[C@@H](CC1CCCCC1)C(=O)O; NMeCba = CN[C@@H](CC1CCC1)C(=O)O; NMeD = CN[C@@H](CC(=O)O)C(=O)O; NMeL = CN[C@@H](CC(C)C)C(=O)O; NMeNva = CCC[C@H](NC)C(=O)O; NMeV = CN[C@H](C(=O)O)C(C)C; NMeA = CN[C@@H](C)C(=O)O; Piperidide = C1CCN(*)CC1; Ac5c = NC1(C(=O)O)CCCC1; Aze = O=C(O)[C@@H]1CCN1; Sar = CNCC(=O)O
# Legend:
# ASPC1 = experiment: Cytotoxicity against human AsPC1 cells assessed as reduction in cell viability incubated for 7 days by CellTiterGlo Luminescent Cell Viability Assay; assay type: functional, cell-based; conditions: ASPC1, 168 h
# [1] = Inhibition of biotin-tagged KRAS G12D mutant (unknown origin) to recombinant His-tagged SOS1 (unknown origin) protein-protein interaction incubated for 120 mins by AlphaLISA method; design: species or system Homo sapiens
# [2] = Apparent permeability in human Caco-2 cells incubated for 180 mins by LC-MS/MS method; assay type: ADME, cell-based
IC50 [1],Papp at 3 h [2],Structure (SMILES),IC50 (ASPC1)
0.013 µM,0.41 ×10⁻⁶ cm/s,CC[C@H](C)[C@@H]1NC(=O)[C@H](CC2CCCC2)N(C)C(=O)C[C@@H](C(=O)N2CCCCC2)N(C)C(=O)[C@H](C(C)C)N(C)C(=O)C2(CCCC2)NC(=O)[C@@H]2CCCN2C(=O)[C@H](CCc2ccc(C(F)(F)F)c(Cl)c2)NC(=O)CN(C)C(=O)[C@H](CC2CCCCC2)N(C)C(=O)CN(C)C(=O)CN(C)C1=O ([NMeAla(cPent)]I[Sar][Sar][NMeCha][Sar][hPhe(3-Cl-4-CF3)]P[Ac5c][NMeV][NMeD]-Piperidide; lactam N-11),0.73 µM
0.01 µM,0.34 ×10⁻⁶ cm/s,CC[C@H](C)[C@@H]1NC(=O)[C@H](CC2CC2)N(C)C(=O)C[C@@H](C(=O)N2CCCCC2)N(C)C(=O)[C@H](C(C)C)N(C)C(=O)C2(CCCC2)NC(=O)[C@@H]2CCCN2C(=O)[C@H](CCc2ccc(C(F)(F)F)c(Cl)c2)NC(=O)CN(C)C(=O)[C@H](CC2CCCCC2)N(C)C(=O)CN(C)C(=O)CN(C)C1=O ([NMeAla(cPr)]I[Sar][Sar][NMeCha][Sar][hPhe(3-Cl-4-CF3)]P[Ac5c][NMeV][NMeD]-Piperidide; lactam N-11),0.65 µM
0.01 µM,0.41 ×10⁻⁶ cm/s,CC[C@H](C)[C@@H]1NC(=O)[C@H](CC2CCC2)N(C)C(=O)C[C@@H](C(=O)N2CCCCC2)N(C)C(=O)[C@H](C(C)C)N(C)C(=O)C2(CCCC2)NC(=O)[C@@H]2CCCN2C(=O)[C@H](CCc2ccc(C(F)(F)F)c(Cl)c2)NC(=O)CN(C)C(=O)[C@H](CC2CCCCC2)N(C)C(=O)CN(C)C(=O)CN(C)C1=O ([NMeCba]I[Sar][Sar][NMeCha][Sar][hPhe(3-Cl-4-CF3)]P[Ac5c][NMeV][NMeD]-Piperidide; lactam N-11),0.79 µM
0.025 µM,0.33 ×10⁻⁶ cm/s,CC[C@H](C)[C@@H]1NC(=O)[C@H](CC2CCCCC2)N(C)C(=O)C[C@@H](C(=O)N2CCCCC2)N(C)C(=O)[C@H](C(C)C)N(C)C(=O)C2(CCCC2)NC(=O)[C@@H]2CCCN2C(=O)[C@H](CCc2ccc(C(F)(F)F)c(Cl)c2)NC(=O)CN(C)C(=O)[C@H](CC2CCCCC2)N(C)C(=O)CN(C)C(=O)CN(C)C1=O ([NMeCha]I[Sar][Sar][NMeCha][Sar][hPhe(3-Cl-4-CF3)]P[Ac5c][NMeV][NMeD]-Piperidide; lactam N-11),0.95 µM
0.045 µM,,CC[C@H](C)[C@@H]1NC(=O)[C@H](CC(C)C)N(C)C(=O)C[C@@H](C(=O)N2CCCCC2)N(C)C(=O)[C@H](CC2CCCCC2)N(C)C(=O)C2(CCCC2)NC(=O)[C@@H]2CCCN2C(=O)[C@H](CCc2ccc(C(F)(F)F)c(Cl)c2)NC(=O)CN(C)C(=O)[C@H](CC2CCCCC2)N(C)C(=O)[C@@H]2CCN2C(=O)[C@H](C)N(C)C1=O ([NMeL]I[NMeA][Aze][NMeCha][Sar][hPhe(3-Cl-4-CF3)]P[Ac5c][NMeCha][NMeD]-Piperidide; lactam N-11),30 µM
0.0039 µM,,CC[C@H](C)[C@@H]1NC(=O)[C@H](CC(C)C)N(C)C(=O)C[C@@H](C(=O)N2CCCCC2)N(C)C(=O)[C@H](CC(C)C)N(C)C(=O)C2(CCCC2)NC(=O)[C@@H]2CCCN2C(=O)[C@H](CCc2ccc(C(F)(F)F)c(Cl)c2)NC(=O)CN(C)C(=O)[C@H](CC2CCCCC2)N(C)C(=O)[C@@H]2CCN2C(=O)[C@H](C)N(C)C1=O ([NMeL]I[NMeA][Aze][NMeCha][Sar][hPhe(3-Cl-4-CF3)]P[Ac5c][NMeL][NMeD]-Piperidide; lactam N-11),0.24 µM
0.0057 µM,,CCC[C@H]1C(=O)N(C)[C@H](C(=O)N2CCCCC2)CC(=O)N(C)[C@@H](CC(C)C)C(=O)N[C@@H]([C@@H](C)CC)C(=O)N(C)[C@@H](C)C(=O)N2CC[C@H]2C(=O)N(C)[C@@H](CC2CCCCC2)C(=O)N(C)CC(=O)N[C@@H](CCc2ccc(C(F)(F)F)c(Cl)c2)C(=O)N2CCC[C@H]2C(=O)NC2(CCCC2)C(=O)N1C ([NMeL]I[NMeA][Aze][NMeCha][Sar][hPhe(3-Cl-4-CF3)]P[Ac5c][NMeNva][NMeD]-Piperidide; lactam N-11),0.31 µM
